Assay results as given in patent US20230346827A1 (priority 2020, published 2023).

System: rats subjected to sTBI
Assay: sTBI rats, LMW-DS 1, 5, 15 mg/kg s.c. 30 min post-TBI: HPLC of brain free amino acids (Example 4)
Type: in vivo, rat
[1] = 15 mg/kg repeated, 7 d post-sTBI

In the case of sodium salt of dextran sulfate [LMW-DS], the ALA (1 mg/kg, 2 d post-sTBI) is reported as 0.76 ± 0.08 nmol/g w.w, the ARG (1 mg/kg, 2 d post-sTBI) is reported as 0.13 ± 0.03 nmol/g w.w and the ASN (1 mg/kg, 2 d post-sTBI) is reported as 0.13 ± 0.02 nmol/g w.w. The ASP (1 mg/kg, 2 d post-sTBI) was 4.17 ± 0.99 nmol/g w.w, the CITR (1 mg/kg, 2 d post-sTBI) was 0.01 ± 0.01 nmol/g w.w and the GABA (1 mg/kg, 2 d post-sTBI) was 1.87 ± 0.17 µmol/g w.w. It also gave a GLN (1 mg/kg, 2 d post-sTBI) of 4.37 ± 0.59 nmol/g w.w, a GLU (1 mg/kg, 2 d post-sTBI) of 12.52 ± 0.91 nmol/g w.w and a GLY (1 mg/kg, 2 d post-sTBI) of 1.35 ± 0.26 nmol/g w.w. For the same substance, the HYS (1 mg/kg, 2 d post-sTBI) was 0.08 ± 0.01 nmol/g w.w, the ILE (1 mg/kg, 2 d post-sTBI) was 0.10 ± 0.02 nmol/g w.w and the L-Cystat (1 mg/kg, 2 d post-sTBI) was 0.25 ± 0.05 nmol/g w.w. For the same substance, the LEU (1 mg/kg, 2 d post-sTBI) was 0.09 ± 0.02 nmol/g w.w, the LYS (1 mg/kg, 2 d post-sTBI) was 0.29 ± 0.11 nmol/g w.w and the MET (1 mg/kg, 2 d post-sTBI) was 0.04 ± 0.01 nmol/g w.w. It also gave an ORN (1 mg/kg, 2 d post-sTBI) of 0.02 ± 0.01 nmol/g w.w, a PHE (1 mg/kg, 2 d post-sTBI) of 0.07 ± 0.03 nmol/g w.w and an SAH (1 mg/kg, 2 d post-sTBI) of 0.07 ± 0.02 nmol/g w.w. It also gave an SER (1 mg/kg, 2 d post-sTBI) of 0.91 ± 0.07 nmol/g w.w, a TAU (1 mg/kg, 2 d post-sTBI) of 4.98 ± 0.47 nmol/g w.w and a THR (1 mg/kg, 2 d post-sTBI) of 0.70 ± 0.15 nmol/g w.w. The TRP (1 mg/kg, 2 d post-sTBI) was 0.02 ± 0.01 nmol/g w.w, the TYR (1 mg/kg, 2 d post-sTBI) was 0.18 ± 0.03 nmol/g w.w and the VAL (1 mg/kg, 2 d post-sTBI) was 0.07 ± 0.03 nmol/g w.w. It also gave an ALA (1 mg/kg, 7 d post-sTBI) of 0.57 ± 0.06 nmol/g w.w, an ARG (1 mg/kg, 7 d post-sTBI) of 0.13 ± 0.02 nmol/g w.w and an ASN (1 mg/kg, 7 d post-sTBI) of 0.10 ± 0.02 nmol/g w.w. For the same substance, the ASP (1 mg/kg, 7 d post-sTBI) was 4.17 ± 0.67 nmol/g w.w, the CITR (1 mg/kg, 7 d post-sTBI) was 0.03 ± 0.01 nmol/g w.w and the GABA (1 mg/kg, 7 d post-sTBI) was 1.73 ± 0.18 µmol/g w.w. It also gave a GLN (1 mg/kg, 7 d post-sTBI) of 4.10 ± 0.42 nmol/g w.w, a GLU (1 mg/kg, 7 d post-sTBI) of 12.14 ± 1.02 nmol/g w.w and a GLY (1 mg/kg, 7 d post-sTBI) of 0.98 ± 0.20 nmol/g w.w. The L-Cystat (1 mg/kg, 7 d post-sTBI) was 0.24 ± 0.04 nmol/g w.w, the MET (1 mg/kg, 7 d post-sTBI) was 0.03 ± 0.01 nmol/g w.w and the ORN (1 mg/kg, 7 d post-sTBI) was 0.01 ± 0.01 nmol/g w.w. The SAH (1 mg/kg, 7 d post-sTBI) was 0.04 ± 0.01 nmol/g w.w, the SER (1 mg/kg, 7 d post-sTBI) was 0.92 ± 0.16 nmol/g w.w and the THR (1 mg/kg, 7 d post-sTBI) was 0.71 ± 0.12 nmol/g w.w. The ALA (5 mg/kg, 2 d post-sTBI) was 0.79 ± 0.08 nmol/g w.w, the ARG (5 mg/kg, 2 d post-sTBI) was 0.13 ± 0.03 nmol/g w.w and the ASN (5 mg/kg, 2 d post-sTBI) was 0.17 ± 0.03 nmol/g w.w. For the same substance, the ASP (5 mg/kg, 2 d post-sTBI) was 4.15 ± 0.95 nmol/g w.w, the CITR (5 mg/kg, 2 d post-sTBI) was 0.02 ± 0.01 nmol/g w.w and the GABA (5 mg/kg, 2 d post-sTBI) was 1.99 ± 0.18 µmol/g w.w. The GLN (5 mg/kg, 2 d post-sTBI) was 4.55 ± 0.44 nmol/g w.w, the GLU (5 mg/kg, 2 d post-sTBI) was 11.93 ± 0.55 nmol/g w.w and the GLY (5 mg/kg, 2 d post-sTBI) was 1.43 ± 0.28 nmol/g w.w. It also gave an HYS (5 mg/kg, 2 d post-sTBI) of 0.11 ± 0.02 nmol/g w.w, an ILE (5 mg/kg, 2 d post-sTBI) of 0.10 ± 0.02 nmol/g w.w and a L-Cystat (5 mg/kg, 2 d post-sTBI) of 0.31 ± 0.06 nmol/g w.w. It also gave an LEU (5 mg/kg, 2 d post-sTBI) of 0.10 ± 0.02 nmol/g w.w, an LYS (5 mg/kg, 2 d post-sTBI) of 0.37 ± 0.14 nmol/g w.w and an MET (5 mg/kg, 2 d post-sTBI) of 0.05 ± 0.01 nmol/g w.w. For the same substance, the ORN (5 mg/kg, 2 d post-sTBI) was 0.01 ± 0.01 nmol/g w.w, the PHE (5 mg/kg, 2 d post-sTBI) was 0.07 ± 0.03 nmol/g w.w and the SAH (5 mg/kg, 2 d post-sTBI) was 0.07 ± 0.02 nmol/g w.w. For the same substance, the SER (5 mg/kg, 2 d post-sTBI) was 0.91 ± 0.07 nmol/g w.w, the TAU (5 mg/kg, 2 d post-sTBI) was 5.15 ± 0.49 nmol/g w.w and the THR (5 mg/kg, 2 d post-sTBI) was 0.77 ± 0.17 nmol/g w.w. It also gave a TRP (5 mg/kg, 2 d post-sTBI) of 0.03 ± 0.01 nmol/g w.w, a TYR (5 mg/kg, 2 d post-sTBI) of 0.20 ± 0.03 nmol/g w.w and a VAL (5 mg/kg, 2 d post-sTBI) of 0.08 ± 0.03 nmol/g w.w. It also gave an ALA (5 mg/kg, 7 d post-sTBI) of 0.44 ± 0.05 nmol/g w.w, an ARG (5 mg/kg, 7 d post-sTBI) of 0.15 ± 0.02 nmol/g w.w and an ASN (5 mg/kg, 7 d post-sTBI) of 0.10 ± 0.02 nmol/g w.w. For the same substance, the ASP (5 mg/kg, 7 d post-sTBI) was 3.63 ± 0.59 nmol/g w.w, the CITR (5 mg/kg, 7 d post-sTBI) was 0.03 ± 0.01 nmol/g w.w and the GABA (5 mg/kg, 7 d post-sTBI) was 1.63 ± 0.17 µmol/g w.w. The GLN (5 mg/kg, 7 d post-sTBI) was 3.86 ± 0.40 nmol/g w.w, the GLU (5 mg/kg, 7 d post-sTBI) was 11.82 ± 0.99 nmol/g w.w and the GLY (5 mg/kg, 7 d post-sTBI) was 0.88 ± 0.15 nmol/g w.w. For the same substance, the L-Cystat (5 mg/kg, 7 d post-sTBI) was 0.26 ± 0.04 nmol/g w.w, the MET (5 mg/kg, 7 d post-sTBI) was 0.04 ± 0.01 nmol/g w.w and the ORN (5 mg/kg, 7 d post-sTBI) was 0.01 ± 0.01 nmol/g w.w. The SAH (5 mg/kg, 7 d post-sTBI) was 0.04 ± 0.01 nmol/g w.w, the SER (5 mg/kg, 7 d post-sTBI) was 0.83 ± 0.14 nmol/g w.w and the THR (5 mg/kg, 7 d post-sTBI) was 0.71 ± 0.15 nmol/g w.w. For the same substance, the ALA [1] was 0.47 ± 0.05 nmol/g w.w, the ARG [1] was 0.19 ± 0.02 nmol/g w.w and the ASN [1] was 0.10 ± 0.02 nmol/g w.w. The ASP [1] was 2.42 ± 0.39 nmol/g w.w, the CITR [1] was 0.03 ± 0.01 nmol/g w.w and the GABA [1] was 1.38 ± 0.14 µmol/g w.w.
